# What was measured:
# [1] = test system: Proteus mirabilis; assay: Antimicrobial activity against Proteus mirabilis TUM4660 by broth dilution method; type: functional
# [2] = test system: Escherichia coli; assay: Antimicrobial activity against Escherichia coli TUM4670 by broth dilution method; type: functional
# [3] = test system: Escherichia coli; assay: Antimicrobial activity against Escherichia coli TUM4672 by broth dilution method
# [4] = test system: Escherichia coli; assay: Antimicrobial activity against Escherichia coli ML4909 by broth dilution method; type: functional
# [5] = test system: Escherichia coli; assay: Antimicrobial activity against Escherichia coli ML4901 by broth dilution method; type: functional
# [6] = test system: Proteus mirabilis; assay: Antimicrobial activity against Proteus mirabilis TUM4660 by broth dilution method in presence of beta-lactamase inhibitor Tazobactam; type: functional
# [7] = test system: Escherichia coli; assay: Antimicrobial activity against Escherichia coli TUM4670 by broth dilution method in presence of beta-lactamase inhibitor Tazobactam; type: functional
# [8] = test system: Escherichia coli; assay: Antimicrobial activity against Escherichia coli TUM4672 by broth dilution method in presence of beta-lactamase inhibitor Tazobactam; type: functional
# [9] = test system: Escherichia coli; assay: Antimicrobial activity against Escherichia coli ML4909 by broth dilution method in presence of beta-lactamase inhibitor Tazobactam; type: functional
# [10] = test system: Escherichia coli; assay: Antimicrobial activity against Escherichia coli ML4901 by broth dilution method in presence of beta-lactamase inhibitor Tazobactam; type: functional
# [11] = test system: Proteus mirabilis; assay: Antimicrobial activity against Proteus mirabilis TUM4660 by broth dilution method in presence of beta-lactamase inhibitor clavulanic acid; type: functional
# [12] = test system: Escherichia coli; assay: Antimicrobial activity against Escherichia coli TUM4670 by broth dilution method in presence of beta-lactamase inhibitor clavulanic acid
# [13] = test system: Escherichia coli; assay: Antimicrobial activity against Escherichia coli TUM4672 by broth dilution method in presence of beta-lactamase inhibitor clavulanic acid
# [14] = test system: Escherichia coli; assay: Antimicrobial activity against Escherichia coli ML4909 by broth dilution method in presence of beta-lactamase inhibitor clavulanic acid; type: functional
# [15] = test system: Escherichia coli; assay: Antimicrobial activity against Escherichia coli ML4901 by broth dilution method in presence of beta-lactamase inhibitor clavulanic acid; type: functional
# [16] = test system: Proteus mirabilis; assay: Antimicrobial activity against Proteus mirabilis TUM4660 by disk diffusion method in presence of 300 ug 3-aminophenyl-boronic acid; type: functional
Compound,MIC [1],MIC [2],MIC [3],MIC [4],MIC [5],MIC [6],MIC [7],MIC [8],MIC [9],MIC [10],MIC [11],MIC [12],MIC [13],MIC [14],MIC [15],diameter of the inhibition zone (DIZ) [16]
CCN1CCN(C(=O)N[C@@H](C(=O)N[C@@H]2C(=O)N3[C@@H]2SC(C)(C)[C@@H]3C(=O)O)c2ccccc2)C(=O)C1=O [PIPERACILLIN],> 128 µg/mL,> 128 µg/mL,> 128 µg/mL,2 µg/mL,2 µg/mL,16 µg/mL,> 128 µg/mL,> 128 µg/mL,2 µg/mL,2 µg/mL,,,,,,
O=C(O)c1cn(C2CC2)c2cc(N3CCNCC3)c(F)cc2c1=O [CIPROFLOXACIN],0.12 µg/mL,≤ 0.06 µg/mL,≤ 0.06 µg/mL,≤ 0.06 µg/mL,≤ 0.06 µg/mL,,,,,,,,,,,
CO/N=C(\C(=O)N[C@@H]1C(=O)N2C(C(=O)[O-])=C(C[N+]3(C)CCCC3)CS[C@H]12)c1csc(N)n1,2 µg/mL,1 µg/mL,2 µg/mL,≤ 0.06 µg/mL,,,,,,,,,,,,
CO[C@@]1(NC(=O)Cc2cccs2)C(=O)N2C(C(=O)O)=C(COC(N)=O)CS[C@@H]21 [CEFOXITIN],128 µg/mL,128 µg/mL,> 128 µg/mL,4 µg/mL,2 µg/mL,,,,,,,,,,,
GENTAMICIN,1 µg/mL,1 µg/mL,,2 µg/mL,2 µg/mL,,,,,,,,,,,
C[C@@H](O)[C@H]1C(=O)N2C(C(=O)O)=C(SCCNC=N)C[C@H]12 [IMIPENEM ANHYDROUS],8 µg/mL,0.25 µg/mL,0.25 µg/mL,,,,,,,,,,,,,
COc1cc(Cc2cnc(N)nc2N)cc(OC)c1OC [TRIMETHOPRIM],4 µg/mL,≤ 0.06 µg/mL,≤ 0.06 µg/mL,0.12 µg/mL,≤ 0.06 µg/mL,,,,,,,,,,,
CC1(C)S[C@@H]2[C@H](NC(=O)[C@H](N)c3ccc(O)cc3)C(=O)N2[C@H]1C(=O)O [AMOXICILLIN],> 128 µg/mL,> 128 µg/mL,> 128 µg/mL,2 µg/mL,4 µg/mL,,,,,,> 128 µg/mL,> 128 µg/mL,> 128 µg/mL,2 µg/mL,4 µg/mL,
CO/N=C(\C(=O)N[C@@H]1C(=O)N2C(C(=O)O)=C(COC(C)=O)CS[C@H]12)c1csc(N)n1 [CEFOTAXIME],8 µg/mL,16 µg/mL,32 µg/mL,≤ 0.06 µg/mL,≤ 0.06 µg/mL,,,,,,16 µg/mL,32 µg/mL,64 µg/mL,≤ 0.06 µg/mL,≤ 0.06 µg/mL,
CC(C)(O/N=C(\C(=O)N[C@@H]1C(=O)N2C(C(=O)[O-])=C(C[n+]3ccccc3)CS[C@H]12)c1csc(N)n1)C(=O)O [CEFTAZIDIME],16 µg/mL,128 µg/mL,128 µg/mL,0.25 µg/mL,0.25 µg/mL,,,,,,16 µg/mL,32 µg/mL,64 µg/mL,0.12 µg/mL,≤ 0.06 µg/mL,>5 mm
